Literature values as cited in patent US20070218033A1, “Composition and method of treating hepatitis C” (priority 1991, published 2007).
Read-outs that look alike come from different tables or passages of the source. Where no end group is shown, it is not given here.

What was measured:
HCV-related diseases = settings: in vivo
[1] = system: response to influenze vaccine; settings: subcutaneously twice weekly
[2] = system: Woodchuck Hepatitis Virus; settings: woodchuck infected with Woodchuck Hepatitis Virus
hepatitis B virus (HBV) = settings: treated for a year
[3] = system: natural killer-cell activity; settings: THNα1 and interferon together; immunosuppressed mice
[4] = system: nonsmall cell lung cancer
[5] = system: post-transfusion NANB hepatitis
[6] = system: chronic hepatitis C (NANB hepatitis)
chronic NANB hepatitis = settings: for proportion of patients with normal ALT levels at week 48: after treatment
[7] = 900 μgrams/m^2 subcutaneously after radiotherapy

Compound: Nc1nc2c(ncn2COCCO)c(=O)[nH]1 [acyclovir]
- effectiveness in HCV-related diseases (HCV-related diseases): ineffective

Compound: THNα1: 28 amino acidic polypeptide, molecular weight 3100, initially isolated from TF-5, sequenced and chemically synthesized (SDAAVDTSSEITTKDLKEKKEVVEEAEN; not fully specified; ends and bridges not checked; UniProt P06454 2-29, looked up)
- clinical or biochemical toxicity ([1]; drug recipients): No clinical or biochemical toxicity
- levels of antibody to influenza versus controls ([1]; six weeks post-vaccine): higher levels
- viral DNA replication [2]: suppressed
- patients with reduced levels of serum HBV DNA (hepatitis B virus (HBV); pooled THNα1 (5) and TF-5 (2) patients): 6 of the 7
- patients initially positive for serum HBsAg who subsequently cleared this antigen (hepatitis B virus (HBV); pooled THNα1 and TF-5 patients): 5 of 6
- effect on natural killer-cell activity [3]: synergistic effect
- T-cell numbers [4, 7]: no increase
- radiation-suppressed immune function [4, 7]: some restoration
- relapse-free survival and overall survival versus placebo group ([4]; 900 μgrams/m^2 subcutaneously twice weekly, or daily for two weeks then twice weekly, both treatment groups): greater

Compound: α-interferon
- side effects ([5]; 1 MU/day): virtually absent
- patients who improved their serum alanine transaminase (ALT) levels within one month of starting therapy ([5]; 5 MU daily in seven patients, 1 MU daily in three patients, ten patients): eight of ten
- side effects ([5]; 5 MU/day dose): common
- degree of portal inflammation and loss of parenchymal hepatocytic necrosis in post-treatment liver biopsies ([5]; three patients with post-treatment liver biopsies): marked improvement
- mean serum ALT and histological features of the liver (chronic HCV infection; 2 MU subcutaneously three times weekly for six months, 21 patients): improved significantly
- other patients with a decrease in mean ALT of more than 50% (chronic HCV infection; 2 MU subcutaneously three times weekly for six months, number of patients): three
- complete response (decline in mean serum ALT to the normal range during therapy) (chronic HCV infection; 2 MU subcutaneously three times weekly for six months, ten of 21 patients): 48%
- patients still with normal ALT values six to twelve months after discontinuation of therapy (chronic HCV infection; 2 MU three times weekly for six months, two patients): 10%
- relapse within six months after the completion of treatment ([6]; 1 MU): 44%
- responded to treatment (serum ALT) ([6]; 1 MU three times weekly for 24 weeks, nine of sixteen patients): 56%
- relapse within six months after the completion of treatment ([6]; 3 MU): 51%
- liver histology (regression of lobular and periportal inflammation) ([6]; 3 MU three times weekly for 24 weeks): histologic improvement
- serum ALT level became completely normal ([6]; 3 MU three times weekly for 24 weeks, 22 of the 26 patients who responded): 85%
- proportion of patients with normal ALT levels at 24 weeks (chronic NANB hepatitis; 1 MU group): 45%
- proportion of patients with normal ALT levels at week 48 (chronic NANB hepatitis; 1 MU group): 20%
- mean serum ALT levels during the 24 week treatment period (chronic NANB hepatitis; 1 MU three times a week): decreased
- proportion of patients with normal ALT levels at 24 weeks (chronic NANB hepatitis; 3 MU group): 39%
- proportion of patients with normal ALT levels at week 48 (chronic NANB hepatitis; 3 MU group): 28%
- decrease of mean serum ALT levels during the 24 week treatment period (chronic NANB hepatitis; 3 MU three times a week): statistically significant
- relapse in disease activity among responders when interferon was stopped (chronic NANB hepatitis; fraction of the responders): approximately half
- severity of histological changes in repeat liver biopsy specimens (chronic NANB hepatitis; higher dose group (3 MU)): significant decrease
- severity of histological changes in repeat liver biopsy specimens (chronic NANB hepatitis; lower dose group (1 MU)): not in the lower dose group
